Read-outs that look alike come from different tables or passages of the source.
What was measured:
5-lipoxygenase [1] = test: Ex vivo inhibition of A-23187-stimulated LTB4 formation in whole blood after oral administration; settings: dose of about 1.0 mg/kg p.o. to the dog
Description: Furthermore, the inhibition of 5-lipoxygenase is determined after oral or i.v. administration to rats or dogs by measuring ex vivo in whole blood the decrease of A-23187-stimulated LTB4 formation as compared to non-treated control animals.

5-lipoxygenase [2] = biological target: T1, 5-lipoxygenase (Cavia porcellus, UniProt A0A286X958); test: Inhibition of 5-HETE and LTB4 synthesis in A-23187-stimulated guinea pig polymorphonuclear leukocytes; format: cell-based
T1 construct: in A-23187-stimulated guinea pig polymorphonuclear leukocytes; endogenous in cells; host or cells: guinea pig polymorphonuclear leukocytes
T1 sequence (A0A286X958 1-674): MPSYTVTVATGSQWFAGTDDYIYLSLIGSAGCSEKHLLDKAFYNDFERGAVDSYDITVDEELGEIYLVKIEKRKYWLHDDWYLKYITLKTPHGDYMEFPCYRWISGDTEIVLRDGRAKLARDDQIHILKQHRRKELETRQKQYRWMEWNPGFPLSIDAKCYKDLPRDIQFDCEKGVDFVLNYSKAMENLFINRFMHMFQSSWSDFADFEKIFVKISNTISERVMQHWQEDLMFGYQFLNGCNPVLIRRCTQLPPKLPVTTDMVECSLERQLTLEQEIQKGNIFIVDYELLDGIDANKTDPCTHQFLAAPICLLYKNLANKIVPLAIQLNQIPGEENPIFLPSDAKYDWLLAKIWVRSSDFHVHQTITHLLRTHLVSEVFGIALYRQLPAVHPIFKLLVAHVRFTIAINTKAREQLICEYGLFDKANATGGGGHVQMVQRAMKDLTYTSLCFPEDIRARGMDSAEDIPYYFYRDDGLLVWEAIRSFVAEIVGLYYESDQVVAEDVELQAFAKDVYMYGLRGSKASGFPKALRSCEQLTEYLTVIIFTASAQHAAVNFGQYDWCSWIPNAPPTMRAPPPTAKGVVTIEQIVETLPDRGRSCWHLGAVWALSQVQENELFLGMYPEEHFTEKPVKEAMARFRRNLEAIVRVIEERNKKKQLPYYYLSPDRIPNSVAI
Description: 5-Lipoxygenase inhibition is determined e.g. by measuring the percent inhibition of the synthesis of 5-HETE [(5S)-5-hydroxy-6,8,11,14-eicosa-tetraenoic acid] and leukotriene B4 (LTB4, 5,12-dihydroxy-6,8,10,14-eicosatetraenoic acid) in A-23187-stimulated guinea pig polymorphonuclear leukocytes, essentially according to radiometric thin-layer chromatographic assays described by Walker and Dawson (J. Pharm. Pharmacol. 31: 778, 1979) and Jakschik and Lee (Nature 287: 51, 1980) to measure the formation of 5-HETE and LTB4 -like products from ^14 C-arachidonic acid. IC50 values are determined graphically as the concentration of test compound at which the synthesis of 5-HETE and LTB4 -like products is reduced to 50% of their respective control values.

- IC50 (5-lipoxygenase [2]; read-out: IC50, inhibition of formation of 5-HETE): ~100 nM
- IC50 (5-lipoxygenase [2]; read-out: IC50, inhibition of formation of leukotriene B4 (LTB4)): ~120 nM
Structure (SMILES): NC(=O)N(O)CC1COc2ccc(Oc3ccc(F)cc3)cc2O1 (stereo not drawn) [1(c), 2-(N-aminocarbonyl-N-hydroxy)aminomethyl-7-(4-fluorophenoxy)-1,4-benzodioxane]
- inhibition of LTB4 formation as determined ex vivo (5-lipoxygenase [1]): significant inhibition

Reference: patent US5120758A, “Certain benzodioxole, benzodioxane and benzodioxepin derivatives useful as 5-lipoxygenase inhibitors” (Ciba-Geigy Corporation, priority 1991, dated 1992)
